Measurements published in patent publication US8362000B2, “Azetidinyl diamides as monoacylglycerol lipase inhibitors” (Janssen Pharmaceutica NV, priority 2009, dated 2013).
Read-outs that look alike come from different tables or passages of the source.

Columns and labels:
mutant MGL = target: T1, mutant MGL (Homo sapiens, UniProt Q99685, L169S/L176S); test: MGL ThermoFluor assay - mutant; type: binding; conditions: read-out: MGL mutant ThermoFluor Kd
T1 sequence (Q99685 1-303 L169S/L176S): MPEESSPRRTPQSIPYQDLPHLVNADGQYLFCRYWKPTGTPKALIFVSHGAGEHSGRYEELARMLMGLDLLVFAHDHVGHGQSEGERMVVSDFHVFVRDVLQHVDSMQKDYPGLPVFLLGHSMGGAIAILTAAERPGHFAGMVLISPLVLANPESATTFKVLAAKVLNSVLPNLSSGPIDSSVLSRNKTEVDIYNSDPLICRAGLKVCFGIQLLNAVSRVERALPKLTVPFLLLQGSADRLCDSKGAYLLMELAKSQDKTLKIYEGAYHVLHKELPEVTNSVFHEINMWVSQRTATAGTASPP

MGL = target: T2, MGL (Rattus norvegicus, UniProt Q8R431); test: 2-AG accumulation assay in rat brain homogenate; type: biochemical; conditions: rat brain homogenate, 2-AG accumulation as percent of vehicle; for 2-AG accumulation, % of vehicle control at 10 µM: compound 10 μM, read-out: Rat Brain 2AG % VehCntrl (%) @ 10 μM; for 2-AG accumulation, % of vehicle control at 1 µM: compound 1 μM, read-out: Rat Brain 2AG % VehCntrl (%) @ 1 μM
T2 construct: one g rat brain was homogenized using a Polytron homogenizer; from tissue; host or cells: rat brain homogenate
T2 sequence (Q8R431 1-303): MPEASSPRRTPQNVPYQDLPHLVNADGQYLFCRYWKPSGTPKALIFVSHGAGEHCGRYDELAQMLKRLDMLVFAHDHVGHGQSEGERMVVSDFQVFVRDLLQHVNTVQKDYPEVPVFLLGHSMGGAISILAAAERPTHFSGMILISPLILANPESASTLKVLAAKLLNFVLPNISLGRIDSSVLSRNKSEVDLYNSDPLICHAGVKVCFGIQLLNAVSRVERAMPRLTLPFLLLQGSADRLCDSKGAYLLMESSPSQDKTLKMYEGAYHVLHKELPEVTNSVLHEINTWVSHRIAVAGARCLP

[1] = ThermoFluor thermal stability binding assay
[2] = ThermoFluor concentration-response

Row | Structure (SMILES) | Kd (mutant MGL; [1]) | 2-AG accumulation, % of vehicle control at 10 µM (MGL) | 2-AG accumulation, % of vehicle control at 1 µM (MGL) | Kd (mutant MGL; [2])
1 | O=C(c1cc2ccc(C(F)(F)F)cc2s1)N1CC(N2CCN(C(=O)c3nccs3)CC2)C1 [Cpd 323, 1-(1,3-Thiazol-2-ylcarbonyl)-4-(1-{[6-(trifluoromethyl)-1-benzothiophen-2-yl]carbonyl}azetidin-3-yl)piperazine] | 1.3 nM | 494% | – | –
2 | O=C(c1cc2c(C(F)(F)F)cccc2s1)N1CC(N2CCN(C(=O)c3nccs3)CC2)C1 [Cpd 327, 1-(1,3-Thiazol-2-ylcarbonyl)-4-(1-{[4-(trifluoromethyl)-1-benzothiophen-2-yl]carbonyl}azetidin-3-yl)piperazine] | 13.7 nM | – | 904% | –
3 | O=C(c1cc2cccc(C(F)(F)F)c2s1)N1CC(N2CCN(C(=O)c3nccs3)CC2)C1 [Cpd 328] | 81.6 nM | – | 378% | –
4 | O=C(c1cscn1)N1CCN(C2CN(C(=O)c3cc4cccc(C(F)(F)F)c4s3)C2)CC1 [Cpd 332, 1-(1,3-Thiazol-4-ylcarbonyl)-4-(1-{[7-(trifluoromethyl)-1-benzothiophen-2-yl]carbonyl}azetidin-3-yl)piperazine] | 109 nM | – | 182% | –
5 | O=C(c1ccccc1)N1CCN(C2CN(C(=O)c3sc4cc(-c5ccccc5)ccc4c3Cl)C2)CC1 [Cpd 344] | 10 nM | – | 238% | –
6 | O=C(c1ccccc1)N1CCN(C2CN(C(=O)c3ccc(-c4ccc(C(F)(F)F)cc4)s3)C2)CC1 [Cpd 347] | 125 nM | – | 125% | –
7 | O=C(c1ccc2c(c1)CCCN2C(=O)c1cccc(C(F)(F)F)c1)N1CC(N2CCN(C(=O)c3nccs3)CC2)C1 [Cpd 358, 6-(3-[4-(1,3-Thiazol-2-ylcarbonyl)piperazin-1-yl]-azetidin-1-yl)-carbonyl 1-[3-(trifluoromethyl)phenyl]carbonyl-1,2,3,4-tetrahydroquinoline] | 65 nM | – | 556% | –
8 | O=C(c1ccc2c(c1)CCCN2C(=O)C1CC1)N1CC(N2CCN(C(=O)c3nccs3)CC2)C1 [Cpd 359, 1-(Cyclopropylcarbonyl)-6-({3-[4-(1,3-thiazol-2-ylcarbon-yl)piperazin-1-yl]azetidin-1-yl}carbonyl)-1,2,3,4-tetrahydroquinoline] | 82.9 nM | – | 176% | –
9 | O=C(c1ccc2c(c1)CCCN2C(=O)C1CCCCC1)N1CC(N2CCN(C(=O)c3nccs3)CC2)C1 [Cpd 360] | 68 nM | – | 819% | –
10 | CS(=O)(=O)N1CCCc2cc(C(=O)N3CC(N4CCN(C(=O)c5nccs5)CC4)C3)ccc21 [Cpd 361] | 144 nM | – | 186% | –
11 | O=C(c1ccc2c(c1)CCCN2S(=O)(=O)c1ccccc1)N1CC(N2CCN(C(=O)c3nccs3)CC2)C1 [Cpd 366, 1-(Phenylsulfonyl)-6-({3-[4-(1,3-thiazol-2-ylcarbonyl)piperazin-1-yl]azetidin-1-yl}carbonyl)-1,2,3,4-tetrahydroquinoline] | 35.3 nM | – | 432% | –
12 | O=C(c1ccc2c(c1)CCCN2S(=O)(=O)c1cccc(C(F)(F)F)c1)N1CC(N2CCN(C(=O)c3nccs3)CC2)C1 [Cpd 367, 6-({3-[4-(1,3-Thiazol-2-ylcarbonyl)piperazin-1-yl]azetidin-1-yl}carbonyl)-1-{[3-(trifluoromethyl)phenyl]sulfonyl}-1,2,3,4-tetrahydroquinoline] | 85.3 nM | – | 701% | –
13 | O=C(c1ccc2c(c1)CCCN2S(=O)(=O)c1cccc(F)c1)N1CC(N2CCN(C(=O)c3nccs3)CC2)C1 [Cpd 368, 1-[(3-Fluorophenyl)sulfonyl]-6-({3-[4-(1,3-thiazol-2-ylcarbonyl)piperazin-1-yl]azetidin-1-yl}carbonyl)-1,2,3,4-tetrahydroquinoline] | 55.1 nM | – | 434% | –
14 | O=C(c1ccc2c(c1)CCCN2Cc1ccccc1)N1CC(N2CCN(C(=O)c3nccs3)CC2)C1 [Cpd 370, 1-Benzyl-6-({3-[4-(1,3-thiazol-2-ylcarbonyl)piperazin-1-yl]azetidin-1-yl}carbonyl)-1,2,3,4-tetrahydroquinoline] | 1 nM | – | 888% | –
15 | O=C(c1ccccc1)N1CCN(C2CN(C(=O)c3ccc(OCc4ccc(Cl)c(Cl)c4)cc3)C2)CC1 [Cpd 379, 1-[1-({4-[(3,4-dichlorobenzyl)oxy]phenyl}carbonyl)azetidin-3-yl]-4-(phenylcarbonyl)piperazine] | 40 nM | 760% | – | –
16 | O=C(c1ccccc1)N1CCN(C2CN(C(=O)c3ccc(OCc4cccc(Cl)c4)c(Cl)c3)C2)CC1 [Cpd 397, 1-[1-({3-Chloro-4-[(3-chlorobenzyl)oxy]phenyl}carbonyl)azetidin-3-yl]-4-(phenylcarbonyl)piperazine] | 33.3 nM | 243% | – | –

Row | Structure (SMILES) | Kd (mutant MGL; [1]) | 2-AG accumulation, % of vehicle control at 10 µM (MGL) | 2-AG accumulation, % of vehicle control at 1 µM (MGL) | Kd (mutant MGL; [2])
17 | O=C(c1ccc(OCc2ccncc2)c(Cl)c1)N1CC(N2CCN(C(=O)c3nccs3)CC2)C1 [Cpd 398, 1-(1-{[3-Chloro-4-(pyridin-4-ylmethoxy)phenyl]carbon-yl}azetidin-3-yl)-4-(1,3-thiazol-2-ylcarbonyl)piperazine] | 86.9 nM | – | 392% | –
18 | O=C(c1ccc(OCc2cccc(Cl)c2)c(Cl)c1)N1CC(N2CCN(C(=O)c3nccs3)CC2)C1 [Cpd 401, 1-[1-({3-Chloro-4-[(3-chlorobenzyl)oxy]phenyl}carbon-yl)azetidin-3-yl]-4-(1,3-thiazol-2-ylcarbonyl)piperazine] | 1.67 nM | 762% | – | –
19 | O=C(c1ccc(OCc2cccnc2)c(Cl)c1)N1CC(N2CCN(C(=O)c3nccs3)CC2)C1 [Cpd 402, 1-(1-{[3-Chloro-4-(pyridin-3-ylmethoxy)phenyl]carbon-yl}azetidin-3-yl)-4-(1,3-thiazol-2-ylcarbonyl)piperazine] | 141 nM | – | 97% | –
20 | O=C(c1ccc(OCc2ccncc2)cc1)N1CC(N2CCN(C(=O)c3nccs3)CC2)C1 [Cpd 403, 1-(1-{[4-(Pyridin-4-ylmethoxy)phenyl]carbonyl}azetidin-3-yl)-4-(1,3-thiazol-2-ylcarbonyl)piperazine] | 338 nM | – | 188% | –
21 | O=C(c1ccccc1)N1CCN(C2CN(C(=O)c3ccc(OCc4ccccn4)c(Cl)c3)C2)CC1 [Cpd 406] | 932 nM | – | 99% | –
22 | O=C(c1ccccc1)N1CCN(C2CN(C(=O)c3ccc(SCc4cccc(Cl)c4)cc3)C2)CC1 [Cpd 410, 1-[1-({4-[(3-Chlorobenzyl)sulfanyl]phenyl}carbonyl)azetidi-3-yl]-4-(phenylcarbonyl)piperazine] | – | 720% | – | 33.3 nM
23 | O=C(c1ccccc1)N1CCN(C2CN(C(=O)c3ccc(SCc4cccc(Cl)c4Cl)cc3)C2)CC1 [Cpd 411, 1-[1-({4-[(2,3-Dichlorobenzyl)sulfanyl]phenyl}carbonyl)azetidin-3-yl]-4-(phenylcarbonyl)piperazine] | – | 741% | – | 33.3 nM
24 | O=C(c1ccc(SCc2cccnc2)cc1)N1CC(N2CCN(C(=O)c3nccs3)CC2)C1 [Cpd 416] | – | – | 228% | 160 nM
25 | O=C(c1ccccc1)N1CCN(C2CN(C(=O)c3ccc(Oc4ccc(Cl)c(Cl)c4)cc3)C2)CC1 [Cpd 422, 1-(1-{[4-(3,4-Dichlorophenoxy)phenyl]carbonyl}azetidin-3-yl)-4-(phenylcarbonyl)piperazine] | – | – | 120% | 53.2 nM
26 | O=C(c1ccc(Oc2ccc(Cl)c(Cl)c2)cc1)N1CC(N2CCN(C(=O)c3nccs3)CC2)C1 [Cpd 423, 1-(1-{[4-(3,4-Dichlorophenoxy)phenyl]carbonyl}azetidin-3-yl)-4-(1,3-thiazol-2-ylcarbonyl)piperazine] | – | – | 529% | 6.9 nM
27 | O=C(c1ccccc1)N1CCN(C2CN(C(=O)c3ccc(Sc4cccc(Cl)c4)cc3)C2)CC1 [Cpd 427, 4-(1-{[4-(3-Chloro-phenylsulfanyl)phenyl]carbonyl}azetidin-3-yl)-1-(phenylcarbonyl)-piperazine] | – | – | 163% | 33.5 nM
28 | O=C(c1ccc(Sc2cccc(Cl)c2)cc1)N1CC(N2CCN(C(=O)c3nccs3)CC2)C1 [Cpd 428] | – | – | 734% | 3.3 nM
29 | O=C(c1ccc(Sc2cccc(Cl)c2)cc1)N1CC(N2CCN(C(=O)c3cscn3)CC2)C1 [Cpd 429] | – | – | 318% | 33.1 nM
30 | O=C(c1ccc(COc2cccc(Cl)c2)cc1)N1CC(N2CCN(C(=O)c3nccs3)CC2)C1 [Cpd 453, 1-[1-({4-[(3-Chlorophenoxy)methyl]phenyl}carbonyl)azetidin-3-yl]-4-(1,3-thiazol-2-ylcarbonyl)piperazine] | – | – | 917% | 12 nM
31 | O=C(c1ccccc1)N1CCN(C2CN(C(=O)c3ccc(NCc4ccccc4)c(I)c3)C2)CC1 [Cpd 542] | – | – | 366% | 14 nM
